In brackets after ≈: the same amount, converted by molar mass. Counter-ions that a name gives are not always drawn.
Tests used:
E. coli., NIHJ = experiment: Antimicrobial activity (MIC), standard method of Nippon Kagakuryoho Gakkai; type: cell-based; conditions: for MIC: Escherichia coli
Method: (§1) Antimicrobial activity of the optically active compounds prepared in Examples was evaluated in accordance with the standard method specified by Nippon […], and results obtained are shown in Table 1 which precedes the claims herein in terms of minimum inhibitory concentration (MIC: […]).

Pr. vulgaris, 08601 = experiment: as above; type: cell-based; conditions: for MIC: Proteus vulgaris
Method: as §1

Ps. aeruginosa, 32104 = experiment: as above; type: cell-based; conditions: for Antimicrobial activity (MIC): Ps. aeruginosa; for MIC: Pseudomonas aeruginosa, 32104, Ps. aeruginosa
Method: as §1

Ps. aeruginosa, 32121 = experiment: as above; type: cell-based; conditions: for Antimicrobial activity (MIC): Ps. aeruginosa; for MIC: Pseudomonas aeruginosa, 32121, Ps. aeruginosa
Method: as §1

S. aureus, 209 P = experiment: as above; type: cell-based; conditions: for MIC: Staphylococcus aureus
Method: as §1

S. epidermidis, 56500 = experiment: as above; type: cell-based; conditions: for Antimicrobial activity (MIC): S. epidermidis; for MIC: Staphylococcus epidermidis, 56500, S. epidermidis
Method: as §1

Ser. marcescens, 10100 = experiment: as above; type: cell-based; conditions: for Antimicrobial activity (MIC): Ser. marcescens; for MIC: Serratia marcescens, 10100, Ser. marcescens
Method: as §1

[1] = tested on: Str. faecalis, ATCC 19433; experiment: as above; type: cell-based; conditions: for Antimicrobial activity (MIC): Str. faecalis; for MIC: Enterococcus faecalis, ATCC19433, Str. faecalis
Method: as §1

Row | Compound | Antimicrobial activity (MIC) (E. coli., NIHJ) [µg/mL] | Antimicrobial activity (MIC) (Pr. vulgaris, 08601) [µg/mL] | Antimicrobial activity (MIC) (Ps. aeruginosa, 32104) [µg/mL] | Antimicrobial activity (MIC) (Ps. aeruginosa, 32121) [µg/mL] | Antimicrobial activity (MIC) (S. aureus, 209 P) [µg/mL] | Antimicrobial activity (MIC) (S. epidermidis, 56500) [µg/mL] | Antimicrobial activity (MIC) (Ser. marcescens, 10100) [µg/mL] | Antimicrobial activity (MIC) [1] [µg/mL] | MIC (Ps. aeruginosa, 32104) [µg/mL] | MIC (Ps. aeruginosa, 32121) [µg/mL] | MIC (S. aureus, 209 P) [µg/mL] | MIC (S. epidermidis, 56500) [µg/mL] | MIC (Ser. marcescens, 10100) [µg/mL] | MIC [1] [µg/mL] | melting point [°C] | MIC (E. coli., NIHJ) [µg/mL] | MIC (Pr. vulgaris, 08601) [µg/mL]
1 | N[C@H]1CCN(c2cc3c(cc2F)c(=O)c(C(=O)O)cn3[C@@H]2C[C@@H]2F)C1 (relative stereo) [Compound 9a, 7-[3-(S)-Amino-1-pyrrolidinyl]-6-fluoro-1-(1,2-cis-2-fluorocyclopropyl)-4-oxo-1,4-dihydroquinoline-3-carboxylic acid] | 0.10 | <0.1 | 0.39 | 0.10 | 0.10 | 0.39 | 0.20 | 1.57 |  |  |  |  |  |  |  |  | 
2 | N[C@H]1CCN(c2cc3c(cc2F)c(=O)c(C(=O)O)cn3[C@@H]2C[C@@H]2F)C1 (relative stereo) [Compound 9b, 7-[3-(S)-Amino-1-pyrrolidinyl]-6-fluoro-1-(1,2-cis-2-fluorocyclopropyl)-4-oxo-1,4-dihydroquinoline-3-carboxylic acid] | <0.1 | <0.1 | 0.10 | <0.1 | <0.1 | 0.39 | 0.10 | 0.79 |  |  |  |  |  |  |  |  | 
3 | NC1CN(c2c(F)cc3c(=O)c(C(=O)O)cn([C@@H]4C[C@@H]4F)c3c2Cl)CC12CC2 (relative stereo) [Compound 26bb, (−)-7-(7-Amino-5-azaspiro[2.4]heptan-5-yl)-8-chloro-6-fluoro-1-(1,2-cis-2-fluoro-1-cylcopropyl)-1,4-dihydro-4-oxoquinoline-3-carboxylic acid] | <0.1 | <0.1 | <0.1 | <0.1 | <0.1 | <0.1 | <0.1 | 0.20 |  |  |  |  |  |  |  |  | 
4 | C[C@H]1C[C@H](N)CN1c1nc2c(cc1F)c(=O)c(C(=O)O)cn2[C@@H]1C[C@@H]1F (relative stereo) [Compound 31b, 7-[4-(S)-Amino-2-(S)-methyl-1-pyrrolidinyl]-6-fluoro-1-(1,2-cis-2-fluoro-1-cyclopropyl)-4-oxo-1,4-dihydro-1,8-naphthyridine-3-carboxylic acid] | <0.1 | <0.1 | 0.20 | 0.10 | <0.1 | 0.20 | 0.10 | 0.39 |  |  |  |  |  |  |  |  | 
5 | Nc1c(F)c(N2CC(N)C3(CC3)C2)c(F)c2c1c(=O)c(C(=O)O)cn2[C@@H]1C[C@@H]1F (relative stereo) [Compound 56b, 5-Amino-7-(7-amino-5-azaspiro[2,4]heptan-5-yl)-6,8-difluoro-1-(1,2-cis-2-fluoro-1-cyclopropyl) 4-oxo-1,4-dihydroquinoline-3-carboxylic acid] | <0.1 | <0.1 | <0.1 | <0.1 | <0.1 | <0.1 | <0.1 | 0.10 |  |  |  |  |  |  |  |  | 
6 | NC1CN(c2c(F)cc3c(=O)c(C(=O)O)cn([C@@H]4C[C@@H]4F)c3c2Cl)CC12CCC2 (relative stereo) [Compound 58b, (−)-7-(8-amino-6-azaspiro[3.4]octane-6-yl)-8-chloro-6-fluoro-1-(1,2-cis-2-fluoro-1-cyclopropyl)-1,4-dihydro-4-oxoquinoline-3-carboxylic acid] | <0.1 | <0.1 | 0.10 | <0.1 | <0.1 | <0.1 | <0.1 | <0.1 |  |  |  |  |  |  |  |  | 
7 | NC1CN(c2c(F)cc3c(=O)c(C(=O)O)cn(C4CC4F)c3c2Cl)CC12CC2 (single isomer, unassigned) [Compound 26aa] | <0.1 | <0.1 |  |  |  |  |  |  | 0.39 (≈ 0.952 µM) | 0.1 (≈ 0.244 µM) | < 0.1 | 0.2 (≈ 0.488 µM) | 0.1 (≈ 0.244 µM) | 0.39 (≈ 0.952 µM) |  |  | 
8 | NC1CN(c2c(F)cc3c(=O)c(C(=O)O)cn(C4CC4F)c3c2Cl)CC12CC2 (single isomer, unassigned) [Compound 26ab] | <0.1 | <0.1 | 0.20 | <0.1 | <0.1 | 0.10 | <0.1 | 0.20 |  |  |  |  |  |  |  |  | 
9 | Cc1c(N2CC[C@@H]([C@H](C)N)C2)c(F)cc2c(=O)c(C(=O)O)cn(C3CC3F)c12 (single isomer, unassigned; (-)) (as salt: hydrochloride) [Compound 54b] |  |  |  |  |  |  |  |  |  |  |  |  |  |  | 149 to 153 |  | 
10 | C[C@H](N)[C@@H]1CCN(c2c(F)cc3c(=O)c(C(=O)O)cn(C4CC4F)c3c2Cl)C1 (single isomer, unassigned; (-)) [Compound 34b] |  |  |  |  |  |  |  |  | 0.1 (≈ 0.243 µM) | < 0.1 | < 0.1 | < 0.1 | < 0.1 | < 0.1 | 204 to 207 | < 0.1 | < 0.1
11 | Cc1c(N2CC[C@@H]([C@H](C)N)C2)c(F)cc2c(=O)c(C(=O)O)cn(C3CC3F)c12 (single isomer, unassigned; (-)) [Compound 54b, hydrochloride] |  |  |  |  |  |  |  |  | 0.2 | 0.1 | < 0.1 | < 0.1 | 0.1 | 0.1 |  | < 0.1 | < 0.1
12 | CC1(C)CN(c2c(F)cc3c(=O)c(C(=O)O)cn([C@@H]4C[C@@H]4F)c3c2Cl)CC1N (single isomer, unassigned; (-)) [Compound 59b] |  |  |  |  |  |  |  |  | 0.2 (≈ 0.486 µM) | < 0.1 | < 0.1 | < 0.1 | < 0.1 | 0.1 (≈ 0.243 µM) | 118 to 121 | < 0.1 | < 0.1
13 | NC1CN(c2c(F)cc3c(=O)c(C(=O)O)cn(C4CC4F)c3c2Cl)CC12CC2 (centres unmarked) [Compound 26ba] |  |  | 0.20 | 0.10 | <0.1 | 0.20 | <0.1 | 0.39 |  |  |  |  |  |  |  | < 0.1 | < 0.1
14 | (+)-5-Amino-7-[3-(S)-amino-1-pyrrolidinyl]-6,8-difluoro-1-(1,2-cis-2-fluoro-1-cyclopropyl)-4-oxo-1,4-dihydroquinoline-3-carboxylic acid [Compound 18b] | <0.1 | <0.1 | <0.1 | <0.1 | <0.1 | <0.1 | <0.1 | 0.10 |  |  |  |  |  |  |  |  | 
15 | (+)-7-[3-(S)-Amino-1-pyrrolidinyl]-8-chloro-6-fluoro-1-(1,2-cis-2-fluoro-1-cyclopropyl)-4-oxo-1,4-dihydroquinoline-3-carboxylic acid [Compound 13a] | <0.1 | <0.1 | <0.1 | <0.1 | <0.1 | <0.1 | <0.1 | 0.20 |  |  |  |  |  |  |  |  | 
16 | (−)-5-Amino-7-[3-(S)-amino-1-pyrrolidinyl]-6,8-difluoro-1-(1,2-cis-2-fluoro-1-cyclopropyl)-4-oxo-1,4-dihydroquinoline-3-carboxylic acid [Compound 18a] | <0.1 | <0.1 | <0.1 | <0.1 | <0.1 | <0.1 | <0.1 | 0.20 |  |  |  |  |  |  |  |  | 
17 | (−)-7-[3-(S)-Amino-1-pyrrolidinyl]-8-chloro-6-fluoro-1-(1,2-cis-2-fluoro-1-cyclopropyl)-4-oxo-1,4-dihydroquinoline-3-carboxylic acid [Compound 13b] | <0.1 | <0.1 | <0.1 | <0.1 | <0.1 | <0.1 | <0.1 | 0.20 |  |  |  |  |  |  |  |  | 

Reference: patent publication USRE41149E1, “Optically active pyridonecarboxylic acid derivatives” (Daiichi Sankyo Company, Limited, priority 1988, dated 2010)
